# Where two headings read alike, the source gives them in different places.
# Tests used:
# [1] = test system: trypsin hyperalgesia, rat hindlimb; experiment: Trypsin Hyperalgesic Assay (THA), rat hindlimb; format: in vivo; conditions: for ED50: po, read-out: THA ED50; for Duration of Analgesia, time in hours to reduce -1.5 × THA ED50 to 40% inhibition: rat
# From the text: B. Trypsin Hyperalgesic Assay (THA)
# [2] = test system: acetic acid writhing; experiment: Acetic Acid Writhing Test (AAWT), mouse; format: in vivo; conditions: po, read-out: AAWT ED50
# From the text: (§1) A. Acetic Acid Writhing Test (AAWT)
# (§2) Using the procedure described by Koster et al. in Fed. Proc. 18, 412 (1959) and Vinegar et al. in Handbook of Experimental Pharmacology, 50-2, ch.
# [3] = test system: carrageenin pleurisy (3 hr exudate volume, mobilized neutrophils); experiment: Carrageenin Pleurisy Assay (CPA); format: in vivo, rat; conditions: for ED50: Rattus norvegicus, Neutrophil, po; for CPA Local activity (inactive at stated dose): inactive at 1.0 mg/rat
# Description: (§3) A. Carrageenin Pleurisy Assay (CPA)
# (§4) Following the procedure described by Vinegar et al. in European J. Rheumatology and Inflammation, 1, 204, (1978) the acute anti-inflammatory activity of the compound of formula (I) was compared with that of known anti-inflammatory drugs. Two assays were performed: in the first, the average 3 hr exudate volume for each drug-treated group was determined and the % inhibition relative to solvent-fed control animals calculated, the ED50 being the dose required to reduce the 3 hr exudate volume by 50%; in the second, the number of mobilized neutrophils was quantified and the % inhibition relative to solvent-fed control animals calculated, the ED50 being the dose required to reduce the number of neutrophils mobilized at 3 hrs by 50%.
# [4] = test system: carrageenin pleurisy in Adrex; experiment: AI activity in Adrex, carrageenin pleurisy p.o.; format: in vivo, rat; conditions: CP p.o.; for AI Activity in Adrex, Vol.: exudate volume
# Description: as §3, §4
# [5] = test system: yeast-induced hyperthermia; experiment: Yeast-Induced Hyperthermia Assay; format: in vivo, rat; conditions: for ED50: po, rat
# From the text: The Yeast-Induced Hyperthermia Assay was used according to the procedure described by Khalili-Varasteh et al. in Arch. Int. Pharmacodyn.
# [6] = Acute toxicity assay, mouse; conditions: in vivo
# [7] = Acute toxicity assay, rat; conditions: in vivo
# Description: Four non-fasted male rats of 160-250 gram body weight were used for each dose level. The compound was injected by the indicated route and the symptom onset time, the intensity of the effect and the duration during a 4 hour observation period are recorded. The LD50 estimated is based on a 7 day observation and is determined by the method of Miller and Tainter (Proc. Soc. Exp. Biol. Med. 57:261, 1944).
# [8] = test system: hepatic glutathione; experiment: Hepatic glutathione depletion in mouse; format: in vivo; conditions: for Hepatic Gluathione Depletion: @ 40% of LD50, i.p. in mouse, over a 5 hr period
# [9] = test system: mouse liver, mouse kidney; conditions: in vivo, ip
# [10] = test system: rat liver, rat kidney; conditions: in vivo, ip
# [11] = test system: methemoglobinemia; experiment: Methemoglobinemia (cyanosis), rat; conditions: for Methemoglobinemia (Cyanosis): rat, @ 500 mg/kg p.o.
# [12] = test system: methemoglobinemia; experiment: Methemoglobinemia (cyanosis), dog; conditions: for Methemoglobinemia (Cyanosis): dog
# [13] = test system: acetic acid writhing; experiment: Acetic Acid Writhing Test (AAWT), rat; format: in vivo; conditions: po, read-out: AAWT ED50
# From the text: as §1, §2
# [14] = test system: rat liver, rat kidney; experiment: Histopathology, rat liver and kidney; conditions: for Histopathology, Rat Kidney / Histopathology, Rat Liver: @ 40% LD50, i.p.
# [15] = test system: mouse liver, mouse kidney; experiment: Histopathology, mouse liver and kidney
# [16] = test system: gastric damage; experiment: Gastric damage in the rat; format: in vivo
# [17] = test system: hot plate analgesia; experiment: Hot plate assay for strong analgesic activity; conditions: in vivo
# [18] = test system: opiate receptors; experiment: Opiate receptor binding in vitro
# [19] = test system: analgesic activity (naloxone); experiment: Naloxone antagonism of analgesic activity; conditions: in vivo
# [20] = test system: prostaglandin synthetase; experiment: Prostaglandin synthetase inhibition; format: biochemical
# [21] = test system: lipoxygenase; experiment: Lipoxygenase inhibition; format: biochemical
# [22] = test system: peroxidase; experiment: Peroxidase inhibition; format: biochemical
# [23] = test system: platelet aggregation; experiment: Platelet aggregation inhibition
# [24] = test system: gastric damage; experiment: Gastric damage (general statement); conditions: in vivo
# [25] = dose reducing 3 hr exudate volume by 50%, read-out: CPA ED50, Vol.
smiles,measurement,setting,value
CC(=O)Nc1ccc(O)cc1 [Acetaminophen],ED50,"[1]; rat hindlimb, p.o.",95 ± 17.2 mg/kg
same,ED50,"[2]; mouse, p.o.",301 ± 11.5 mg/kg
same,"Duration of AI Activity, time in hrs to reduce 2 × CP cell ED50 to 40% inhibition of Vol.: Cells",[3],3.8 h
same,ED50,[3]; [25],172 ± 22.4 mg/kg
same,"Duration of AI Activity, time in hrs to reduce 2 × CP cell ED50 to 40% inhibition of Vol.: Vol.",[3],2.2 h
same,CPA Local activity (inactive at stated dose),[3]; local,Inactive
same,"AI Activity in Adrex, Cells",[4],Weakly Active
same,"AI Activity in Adrex, Vol.",[4],Active
same,ED50,[5],72 ± 8.6 mg/kg
same,LD50 at 168 h,[6]; ip,880 mg/kg
same,LD50 at 168 h,[6]; po,1640 mg/kg
same,LD50 at 168 h,[7]; ip,1640 mg/kg
same,Hepatic Gluathione Depletion,[8],+ (90% depletion over a 5 hr period)
same,"Histopathology, Mouse Kidney",[9],+
same,"Histopathology, Mouse Liver",[9],+
same,"Histopathology, Rat Kidney",[10],+
same,"Histopathology, Rat Liver",[10],+
same,Methemoglobinemia (Cyanosis),[11],No
same,Methemoglobinemia (Cyanosis),[12]; @ 100 mg/kg p.o.,No
"CCOc1ccc(NC(C)=O)cc1 [Phenacetin, p-ethoxyacetanilide]",ED50,[1]; Rattus norvegicus,69 ± 11.6 mg/kg
same,"Duration of Analgesia, time in hours to reduce -1.5 × THA ED50 to 40% inhibition",[1]; p.o.,5.7 h
same,ED50,[13]; Rattus norvegicus,46 ± 10.1 mg/kg
same,ED50,[2]; Mus musculus,116 ± 14.5 mg/kg
same,"Duration of AI Activity, time in hrs to reduce 2 × CP cell ED50 to 40% inhibition of Vol.: Cells",[3],7.0 h
same,ED50,"[3]; 3 h, read-out: CPA ED50, Cells",110 ± 15.5 mg/kg
same,ED50,"[3]; 3 h, read-out: CPA ED50, Vol.",102 ± 14.6 mg/kg
same,"Duration of AI Activity, time in hrs to reduce 2 × CP cell ED50 to 40% inhibition of Vol.: Vol.",[3],10.5 h
same,CPA Local activity (inactive at stated dose),[3]; local,Inactive
same,"AI Activity in Adrex, Cells",[4],Inactive
same,ED50,[5],55 ± 28.6 mg/kg
same,LD50 at 168 h,[6]; ip,620 mg/kg
same,LD50 at 168 h,[6]; po,2500 mg/kg
same,LD50 at 168 h,"[7]; ip, 7 day observation",900 mg/kg
same,LD50 at 168 h,"[7]; po, 7 day observation",2900 mg/kg
same,Hepatic Gluathione Depletion,[8],+ (90% depletion over a 5 hr period)
same,Methemoglobinemia (Cyanosis),[11],Yes
same,Methemoglobinemia (Cyanosis),[12]; @ 100 mg/kg p.o.,Yes
same,Methemoglobinaemia,[12]; relatively low dose levels,produces severe methemoglobinaemia at relatively low dose levels
same,"Histopathology, Rat Kidney",[14],-
same,"Histopathology, Rat Liver",[14],-
same,"Histopathology, Mouse Kidney","[15]; @ 40% LD50, i.p.",-
same,"Histopathology, Mouse Liver","[15]; @ 40% LD50, i.p.",-
"CC(=O)Nc1ccc2c(c1)OCO2 [Compound of formula (I), N-(1,3-benzodioxol-5-yl)acetamide]","Activity in trypsin hyperalgesic assay, I.C.V.",[1]; injected intracerebroventricularly (I.C.V.),inactive
same,ED50,"[1]; rat hindlimb, p.o.",20 ± 5.1 mg/kg
same,"Duration of Analgesia, time in hours to reduce -1.5 × THA ED50 to 40% inhibition",[1]; p.o.,8.0 h
same,ED50,"[13]; rat, p.o.",50 ± 0.6 mg/kg
same,"Duration of AI Activity, time in hrs to reduce 2 × CP cell ED50 to 40% inhibition of Vol.: Cells",[3],6 h
same,ED50,[3]; [25],34 ± 2.2 mg/kg
same,ED50,"[3]; dose reducing neutrophils mobilized at 3 hrs by 50%, read-out: CPA ED50, Cells",49 ± 6.8 mg/kg
same,"Duration of AI Activity, time in hrs to reduce 2 × CP cell ED50 to 40% inhibition of Vol.: Vol.",[3],6 h
same,Anti-inflammatory activity in the rat,[3]; carrageenin pleurisy assay,comparable with aspirin
same,CPA Local activity (inactive at stated dose),[3]; local,Inactive
same,"AI Activity in Adrex, Cells",[4],Active
same,"AI Activity in Adrex, Vol.",[4],Active
same,ED50,[5],57 mg/kg
same,Antipyretic activity in the rat,[5]; yeast-induced hyperthermia,comparable with aspirin and phenacetin
same,LD50 at 168 h,[6]; ip,250 mg/kg
same,LD50 at 168 h,[6]; po,660 mg/kg
same,LD50 at 168 h,"[7]; ip, 7 day observation",410 mg/kg
same,LD50 at 168 h,"[7]; po, 7 day observation",1000 mg/kg
same,Depletion of hepatic glutathione,[8]; mouse,not been shown
same,Gastric damage in the rat,[16]; after 80 mg/kg,does not produce gastric damage
same,Activity in hot plate assay for strong analgesic activity,[17],inactive
same,Binding to opiate receptors in vitro,[18],does not bind to opiate receptors in vitro
same,Inhibition of analgesic activity by naloxone,[19],not inhibited by naloxone
same,Prostaglandin synthetase inhibition,[20],"is not a prostaglandin synthetase, lipoxygenase or peroxidase inhibitor"
same,Lipoxygenase inhibition,[21],"is not a prostaglandin synthetase, lipoxygenase or peroxidase inhibitor"
same,Peroxidase inhibition,[22],"is not a prostaglandin synthetase, lipoxygenase or peroxidase inhibitor"
same,Platelet aggregation inhibition,[23],does not produce the gastric damage or platelet aggregation inhibition
same,Gastric damage associated with aspirin-like drugs,[24],does not produce the gastric damage
same,Methemoglobinemia (Cyanosis),[11],No
same,Methemoglobinaemia,"[11]; rats, high oral doses",not been shown
same,Methemoglobinemia (Cyanosis),[12]; @ 200 mg/kg p.o.,Slight
same,Methemoglobinaemia,"[12]; dogs, high dose levels",has produced methemoglobinaemia in dogs at high dose levels
same,"Histopathology, Rat Kidney",[14],-
same,"Histopathology, Rat Liver",[14],-
same,Histopathological evidence of hepatic or renal damage,[14]; rat,not been shown to produce histopathological evidence of hepatic or renal damage
same,Histopathological evidence of hepatic or renal damage,[15]; mouse,not been shown to produce histopathological evidence of hepatic or renal damage
CC(=O)Oc1ccccc1C(=O)O [Aspirin],Activity in trypsin hyperalgesic assay,[1],essentially inactive
same,THA activity (inactive at stated dose),"[1]; rat hindlimb, p.o., inactive at 360 mg/kg",Inactive
same,ED50,[13]; Rattus norvegicus,21 ± 3.4 mg/kg
same,ED50,[2]; Mus musculus,301 ± 21.1 mg/kg
same,"Duration of AI Activity, time in hrs to reduce 2 × CP cell ED50 to 40% inhibition of Vol.: Cells",[3],3.0 h
same,ED50,"[3]; 3 h, read-out: CPA ED50, Cells",75 ± 7.5 mg/kg
same,ED50,"[3]; 3 h, read-out: CPA ED50, Vol.",28 ± 3.2 mg/kg
same,"Duration of AI Activity, time in hrs to reduce 2 × CP cell ED50 to 40% inhibition of Vol.: Vol.",[3],35.0 h
same,"CPA ED50, Local",[3]; local,0.04 mg/rat
same,"AI Activity in Adrex, Cells",[4],Inactive
same,"AI Activity in Adrex, Vol.",[4],Active
same,ED50,[5],50 ± 8.1 mg/kg
same,LD50 at 168 h,[6]; ip,220 mg/kg
same,LD50 at 168 h,[6]; po,1100 mg/kg
same,LD50 at 168 h,"[7]; ip, 7 day observation",500 mg/kg
same,Gastric damage in the rat,[16]; single oral dose of 30 mg/kg,produces ulcers and haemorrhages
CN1CC[C@]23c4c5ccc(O)c4O[C@H]2[C@@H](O)C=C[C@H]3[C@H]1C5 [Morphine],Activity in hot plate assay for strong analgesic activity,[17],active
COc1ccc2c3c1O[C@H]1[C@@H](O)C=C[C@H]4[C@@H](C2)N(C)CC[C@@]341 [Codeine],Activity in hot plate assay for strong analgesic activity,[17],active
